Reference: ChEMBL document CHEMBL2203270, “POMA analyses as new efficient bioinformatics' platform to predict and optimise bioactivity of synthesized 3a,4-dihydro-3H-indeno[1,2-c]pyrazole-2-carboxamide/carbothioamide analogues” (Bioorg Med Chem Lett, 2012)
≈ marks a conversion by molar mass, not a printed value.

What was measured:
[1] = system: Human immunodeficiency virus 2; test: Antiviral activity against HIV-2 ROD infected in MT4 cells assessed as inhibition of virus-induced cytopathicity; assay type: functional, organism-based; conditions: Human immunodeficiency virus 2, ISOLATE ROD
[2] = system: Human immunodeficiency virus 2; test: Antiviral activity against HIV-2 ROD infected in MT4 cells assessed as protection against virus-induced cytopathicity relative to control; assay type: functional; conditions: Human immunodeficiency virus 2, ISOLATE ROD
[3] = system: Human immunodeficiency virus 1; test: Antiviral activity against HIV-1 3B infected in MT4 cells assessed as protection against virus-induced cytopathicity relative to control; assay type: functional; conditions: Human immunodeficiency virus 1, 3B
[4] = Cytotoxicity against mock-infected human MT4 cells assessed as decrease in cell viability by MTT assay; assay type: cell-based
[5] = system: Human immunodeficiency virus 1; test: Antiviral activity against HIV-1 3B infected in MT4 cells assessed as inhibition of virus-induced cytopathicity; assay type: functional, organism-based; conditions: Human immunodeficiency virus 1, 3B
Pseudomonas aeruginosa = test: Antimicrobial activity against Pseudomonas aeruginosa ATCC 10145 by broth dilution technique; assay type: functional
Candida albicans = test: Antimicrobial activity against Candida albicans NCIM 3471 by broth dilution technique; assay type: functional
Escherichia coli = test: Antimicrobial activity against Escherichia coli NCIM 5051 by broth dilution technique; assay type: functional
Aspergillus niger = test: Antimicrobial activity against Aspergillus niger NCIM 1196 by broth dilution technique; assay type: functional
Staphylococcus aureus = test: Antimicrobial activity against Staphylococcus aureus NCIM 2079 by broth dilution technique; assay type: functional
Bacillus subtilis = test: Antimicrobial activity against Bacillus subtilis NCIM 2439 by broth dilution technique; assay type: functional

| Structure (SMILES) | IC50 [1] | Emax [2] | Emax [3] | CC50 [4] | IC50 [5] | MBC (Pseudomonas aeruginosa) | MIC (Pseudomonas aeruginosa) | MFC (Candida albicans) | MIC (Candida albicans) | MBC (Escherichia coli) | MIC (Escherichia coli) | MFC (Aspergillus niger) | MIC (Aspergillus niger) | MBC (Staphylococcus aureus) | MIC (Staphylococcus aureus) | MBC (Bacillus subtilis) | MIC (Bacillus subtilis) |
| --- | --- | --- | --- | --- | --- | --- | --- | --- | --- | --- | --- | --- | --- | --- | --- | --- | --- |
| COc1cc2c(cc1OC)C1=NN(C(=O)Nc3ccc(C)cc3C)C(c3ccncc3)C1C2 (centres undefined) | > 25.2 µM | 4% | 1% | 25.2 µM | > 25.2 µM |  |  |  |  |  |  |  |  |  |  |  |  |
| COc1ccc(C2C3Cc4cc(OC)c(OC)cc4C3=NN2C(=O)Nc2c(C)cccc2C)cc1 (centres undefined) | > 169 µM | 6% | 5% | 169 µM | > 169 µM |  |  |  |  |  |  |  |  |  |  |  |  |
| COc1ccc(C2C3Cc4cc(OC)c(OC)cc4C3=NN2C(N)=S)cc1OC (centres undefined) | > 158 µM | 11% | 4% | 158 µM | > 158 µM | > 512 µg/mL | 128 µg/mL (≈ 310 µM) | 512 µg/mL (≈ 1240 µM) | 16 µg/mL (≈ 38.7 µM) | > 512 µg/mL | 64 µg/mL (≈ 155 µM) | 512 µg/mL (≈ 1240 µM) | 16 µg/mL (≈ 38.7 µM) | > 512 µg/mL | 128 µg/mL (≈ 310 µM) | > 512 µg/mL | 128 µg/mL (≈ 310 µM) |
| COc1cc2c(cc1OC)C1=NN(C(=O)Nc3c(C)cccc3C)C(c3ccc(F)cc3)C1C2 (centres undefined) | > 9.36 µM | 4% | 3% | 9.36 µM | > 9.36 µM |  |  |  |  |  |  |  |  |  |  |  |  |
| COc1cc2c(cc1OC)C1=NN(C(=O)Nc3ccc(F)cc3)C(c3ccccc3)C1C2 (centres undefined) | > 68.6 µM | 7% | 3% | 68.6 µM | > 68.6 µM |  |  |  |  |  |  |  |  |  |  |  |  |
| COc1cc2c(cc1OC)C1=NN(C(=O)Nc3ccc(Br)cc3)C(c3ccccc3)C1C2 (centres undefined) | > 86 µM | 10% | 3% | 86 µM | > 86 µM |  |  |  |  |  |  |  |  |  |  |  |  |
| COc1cc2c(cc1OC)C1=NN(C(=O)Nc3ccc(F)cc3)C(c3ccccc3Cl)C1C2 (centres undefined) | > 9.09 µM | 1% | 2% | 9.09 µM | > 9.09 µM |  |  |  |  |  |  |  |  |  |  |  |  |
| COc1cc2c(cc1OC)C1=NN(C(N)=S)C(c3ccncc3)C1C2 (centres undefined) | > 36.9 µM | 3% | 2% | 36.9 µM | > 36.9 µM | > 512 µg/mL | 32 µg/mL (≈ 90.3 µM) | > 512 µg/mL | 128 µg/mL (≈ 361 µM) | > 512 µg/mL | 32 µg/mL (≈ 90.3 µM) | > 512 µg/mL | 128 µg/mL (≈ 361 µM) | > 512 µg/mL | 32 µg/mL (≈ 90.3 µM) | > 512 µg/mL | 32 µg/mL (≈ 90.3 µM) |
| COc1cc2c(cc1OC)C1=NN(C(=O)Nc3ccc(F)c(Cl)c3)C(c3ccncc3)C1C2 (centres undefined) | > 29.5 µM | 2% | 4% | 29.5 µM | > 29.5 µM |  |  |  |  |  |  |  |  |  |  |  |  |
| COc1cc2c(cc1OC)C1=NN(C(N)=O)C(c3ccccc3)C1C2 (centres undefined) | > 259 µM | 11% | 2% | 259 µM | > 259 µM | > 512 µg/mL | 256 µg/mL (≈ 759 µM) | > 512 µg/mL | 128 µg/mL (≈ 379 µM) | > 512 µg/mL | 256 µg/mL (≈ 759 µM) | > 512 µg/mL | 256 µg/mL (≈ 759 µM) | > 512 µg/mL | 256 µg/mL (≈ 759 µM) | > 512 µg/mL | 256 µg/mL (≈ 759 µM) |
| COc1cc2c(cc1OC)C1=NN(C(=O)Nc3c(C)cccc3C)C(c3ccccc3Cl)C1C2 (centres undefined) | > 159 µM | 9% | 4% | 159 µM | > 159 µM |  |  |  |  |  |  |  |  |  |  |  |  |
| COc1ccc(C2C3Cc4cc(OC)c(OC)cc4C3=NN2C(=O)Nc2ccc(C)cc2C)cc1OC (centres undefined) | > 145 µM | 16% | 16% | 145 µM | > 145 µM |  |  |  |  |  |  |  |  |  |  |  |  |
| COc1cc2c(cc1OC)C1=NN(C(=O)Nc3ccc(Br)cc3)C(c3ccncc3)C1C2 (centres undefined) | > 26.5 µM | 1% | 1% | 26.5 µM | > 26.5 µM |  |  |  |  |  |  |  |  |  |  |  |  |
| COc1cc2c(cc1OC)C1=NN(C(=O)Nc3ccc(F)cc3)C(c3ccncc3)C1C2 (centres undefined) | > 31.9 µM | 2% | 2% | 31.9 µM | > 31.9 µM |  |  |  |  |  |  |  |  |  |  |  |  |
| COc1ccc(C2C3Cc4cc(OC)c(OC)cc4C3=NN2C(=O)Nc2ccc(Br)cc2)cc1 (centres undefined) | > 136 µM | 5% | 3% | 136 µM | > 136 µM |  |  |  |  |  |  |  |  |  |  |  |  |
| COc1cc2c(cc1OC)C1=NN(C(=O)Nc3ccc(F)cc3)C(c3ccc(F)cc3)C1C2 (centres undefined) | > 119 µM | 14% | 4% | 119 µM | > 119 µM |  |  |  |  |  |  |  |  |  |  |  |  |
| COc1cc2c(cc1OC)C1=NN(C(=O)Nc3ccc(Br)cc3)C(c3ccc(F)cc3)C1C2 (centres undefined) | > 108 µM | 16% | 8% | 108 µM | > 108 µM |  |  |  |  |  |  |  |  |  |  |  |  |
| COc1cc2c(cc1OC)C1=NN(C(=O)Nc3ccc(C)cc3C)C(c3ccccc3Cl)C1C2 (centres undefined) | > 11 µM | 5% | 1% | 11 µM | > 11 µM |  |  |  |  |  |  |  |  |  |  |  |  |
| COc1ccc(C2C3Cc4cc(OC)c(OC)cc4C3=NN2C(=O)Nc2ccc(Br)cc2)cc1OC (centres undefined) | > 150 µM | 39% | 15% | 150 µM | > 150 µM |  |  |  |  |  |  |  |  |  |  |  |  |
| COc1cc2c(cc1OC)C1=NN(C(=O)Nc3ccc(Br)cc3)C(c3ccccc3Cl)C1C2 (centres undefined) | > 11.5 µM | 2% | 2% | 11.5 µM | > 11.5 µM |  |  |  |  |  |  |  |  |  |  |  |  |
| COc1ccc(C2C3Cc4cc(OC)c(OC)cc4C3=NN2C(=O)Nc2ccc(F)cc2)cc1OC (centres undefined) | > 208 µM | 37% | 11% | 208 µM | > 208 µM |  |  |  |  |  |  |  |  |  |  |  |  |
| Cc1cn([C@H]2C[C@H](N=[N+]=[N-])[C@@H](CO)O2)c(=O)[nH]c1=O [ZIDOVUDINE] |  | 66% | 90% | > 93.5 µM |  |  |  |  |  |  |  |  |  |  |  |  |  |
| COc1ccc(C2C3Cc4cc(OC)c(OC)cc4C3=NN2C(=O)Nc2c(C)cccc2C)cc1OC (centres undefined) | > 182 µM | 37% | 11% | 182 µM | > 182 µM |  |  |  |  |  |  |  |  |  |  |  |  |
| COc1ccc(C2C3Cc4cc(OC)c(OC)cc4C3=NN2C(=O)Nc2ccc(F)cc2)cc1 (centres undefined) | > 132 µM | 9% | 7% | 132 µM | > 132 µM |  |  |  |  |  |  |  |  |  |  |  |  |
| COc1cc2c(cc1OC)C1=NN(C(=O)Nc3ccc(C)cc3C)C(c3ccccc3)C1C2 (centres undefined) | > 33.4 µM | 7% | 5% | 33.4 µM | > 33.4 µM |  |  |  |  |  |  |  |  |  |  |  |  |
| COc1cc2c(cc1OC)C1=NN(C(=O)Nc3ccc(Cl)cc3)C(c3ccncc3)C1C2 (centres undefined) | > 4.83 µM | 5% | 4% | 4.83 µM | > 4.83 µM |  |  |  |  |  |  |  |  |  |  |  |  |
| COc1ccc(C2C3Cc4cc(OC)c(OC)cc4C3=NN2C(=O)Nc2ccc(Cl)cc2)cc1OC (centres undefined) | > 106 µM | 9% | 4% | 106 µM | > 106 µM |  |  |  |  |  |  |  |  |  |  |  |  |
| COc1cc2c(cc1OC)C1=NN(C(=O)Nc3c(C)cccc3C)C(c3ccccc3)C1C2 (centres undefined) | > 211 µM | 12% | 4% | 211 µM | > 211 µM |  |  |  |  |  |  |  |  |  |  |  |  |
| COc1cc2c(cc1OC)C1=NN(C(=O)Nc3ccc(Cl)cc3)C(c3ccccc3)C1C2 (centres undefined) | > 28.4 µM | 19% | 2% | 28.4 µM | > 28.4 µM |  |  |  |  |  |  |  |  |  |  |  |  |
| COc1cc2c(cc1OC)C1=NN(C(=O)Nc3ccc(C)cc3C)C(c3ccc(F)cc3)C1C2 (centres undefined) | > 198 µM | 12% | 4% | 198 µM | > 198 µM |  |  |  |  |  |  |  |  |  |  |  |  |
